This note sets out measurements from the Deep4Chem optical property database.

This data set in a line: photoluminescence quantum yield (fraction); solvent given as SMILES.

Molecules are shown by their SMILES.

With `c1ccc(N(c2ccccc2)c2ccc(-c3ccc4c(c3)C3(c5ccccc5Oc5ccccc53)c3cc(-c5ccc(N(c6ccccc6)c6ccccc6)cc5)ccc3-4)cc2)cc1`, the photoluminescence quantum yield is, setting by setting: (in ClCCl) 0.91; (in c1cc(-n2c3ccccc3c3ccccc32)cc(-n2c3ccccc3c3ccccc32)c1) 0.9.

`CC1=CC(C)=[N+]2C1=C(c1ccc(N3CCOCC3)cc1)c1c(C)cc(C)n1[B-]2(F)F`: the photoluminescence quantum yield is, setting by setting: (in C1CCOC1) 0.011; (in CC#N) 0.001; (in CC(=O)C(C)(C)C) 0.063; (in CC(C)=O) 0.001; (in CCCCCC) 0.45; (in CCOC(C)=O) 0.029. Further, the photoluminescence quantum yield (in CO) came to 0.002.

Where the note is “in ClCCl”, `CN(C)c1cc(-c2ccc(C#Cc3ccccc3)cc2)cc2ccccc12` displayed a photoluminescence quantum yield of 0.7.

For `CCn1c2ccccc2c2cc(-c3cc(-c4ccc5c(c4)c4ccccc4n5CC)ncn3)ccc21`, the photoluminescence quantum yield came to 0.44 (in C1CCOC1); 0.8 (in CCOC(C)=O); 0.76 (in CN(C)C=O); 0.73 (in Cc1ccccc1); 0.75 (in ClCCl).

`c1ccc(-c2nc(-c3cccc4ccccc34)n3ccccc23)cc1`: the photoluminescence quantum yield (in ClCCl) amounted to 0.125.

`COc1nc(Cl)nc(Nc2ccc3cc4ccccc4cc3c2)n1` yielded a photoluminescence quantum yield (in C1COCCO1) of 0.25, a photoluminescence quantum yield (in CC#N) of 0.03, a photoluminescence quantum yield (in CCCCOCCCC) of 0.25 and a photoluminescence quantum yield (in CCOC(C)=O) of 0.12.

Compound `c1ccc(-c2nc(-c3ccccc3)c(-c3ccccc3)o2)cc1` had a photoluminescence quantum yield (in Cc1ccccc1) of 0.36.

Where the note is “in ClCCl”, `O=c1c2cc(C#Cc3ccc(Cl)cc3)ccc2nc2ccc(C#Cc3ccc(Cl)cc3)cn12` yielded a photoluminescence quantum yield of 0.33.

The compound `CCOC(=O)c1cc(C(=O)OCC)c2cc(NC(=O)C(F)(F)F)ccc2n1` displayed a photoluminescence quantum yield (in CCO) of 0.34.

Regarding `O=[N+]([O-])c1ccc(/C=C/c2c[nH]c3ccccc23)cc1`, the photoluminescence quantum yield reads like this: (in CC#N) 0.009; (in CCCCCCC) 0.051; (in CO) 0.003; (in O) 0.024.

`CCCCC(CC)CN1C(=O)C2=C(c3ccc(-c4ccc(C5=C6C(C)=CC(C)=[N+]6[B-](F)(F)n6c(C)cc(C)c65)cc4)s3)N(CC(CC)CCCC)C(=O)C2=C1c1ccc(-c2ccc(C3=C4C(C)=CC(C)=[N+]4[B-](F)(F)n4c(C)cc(C)c43)cc2)s1` (stereo not given): for the setting “in Cc1ccccc1”, the photoluminescence quantum yield is 0.45.

On to `COc1ccc(-c2c3ccccc3c3n2[B-](F)(F)[N+]2=Cc4c5ccccc5c(-c5ccc(OC)cc5)n4[B-](F)(F)[N+]2=C3)cc1`, for which the photoluminescence quantum yield (in CC#N) came out at 0.22; the photoluminescence quantum yield (in CCCCCC) came to 0.32; the photoluminescence quantum yield (in CN(C)C=O) came to 0.23; the photoluminescence quantum yield (in Cc1ccccc1) amounted to 0.31; the photoluminescence quantum yield (in ClCCl) worked out at 0.31.

In turn, `F[B-]1(F)n2c(c3c(c2-c2ccccc2)C2C=CC3CC2)C(c2ccccc2)=C2C3=C(C(c4ccccc4)=[N+]21)C1C=CC3CC1` (stereo not given) registered a photoluminescence quantum yield (in ClCCl) of 0.87.

`COCCC1=Cc2nc1ccc1[nH]c(cc1CCOC)c1nc(c(N)cc3[nH]c2cc3CCOC)C(CCOC)=C1` yielded a photoluminescence quantum yield (in Cc1ccccc1) of 0.04.

In turn, `CN(C)c1ccc2c(c1)C(C)(C)C(=O)C=C2` displayed a photoluminescence quantum yield (in O) of 0.13.

For `CCN(CC)c1ccc(C2=C3C(C)=CC(C)=[N+]3[B-](F)(F)n3c(C)cc(C)c32)cc1`, where the note is “in CO”, the photoluminescence quantum yield came to 0.56.

`O=C1/C(=C/C=C/c2cc3c4c(c2)CCCN4CCC3)CC/C1=C\C=C\c1cc2c3c(c1)CCCN3CCC2`: the photoluminescence quantum yield is, setting by setting: (in CC#N) 0.037; (in CC(C)=O) 0.092; (in CC(C)O) 0.07; (in CCCCCC) 0.13; (in CCCCO) 0.061; (in CCCO) 0.042. This compound had a photoluminescence quantum yield (in CCO) of 0.026; a photoluminescence quantum yield (in CCOC(C)=O) of 0.1; a photoluminescence quantum yield (in CCOCC) of 0.26; a photoluminescence quantum yield (in CN(C)C=O) of 0.053; a photoluminescence quantum yield (in CO) of 0.026; a photoluminescence quantum yield (in CS(C)=O) of 0.062. In addition, the photoluminescence quantum yield was 0.3 (in Cc1ccccc1); 0.15 (in ClCCl); 0.008 (in OCC(F)(F)F); 0.078 (in S=C=S); 0.3 (in c1ccccc1); 0.17 (in c1ccncc1).

For `Cc1ccc2[nH]c(-c3ccc(-c4ccc(-c5ccc(-c6nc7cc(C)ccc7[nH]6)cc5)c(C)c4)cc3)nc2c1`, where the note is “in CN(C)C=O”, the photoluminescence quantum yield worked out at 0.86.

Turning to `CN(C)c1ccc(C#Cc2ccc3ccc(=O)oc3c2)cc1`, under “in CC#N”, the photoluminescence quantum yield is 0.009.

For the compound `Cn1c2ccc(S(=O)(=O)Cl)cc2c(=O)c2cc(S(=O)(=O)Cl)ccc21`, where the note is “in CS(C)=O”, the photoluminescence quantum yield amounted to 0.7.

`COc1ccccc1C1=NC2c3cccc4cccc(c34)C2N1c1ccccc1` (stereo not given) displayed a photoluminescence quantum yield (in Cc1ccccc1) of 0.01.

For the compound `CC1=CC(/C=C/c2ccc(OCCCN=[N+]=[N-])cc2)=[N+]2C1=C(c1ccc(N3CCCCC3)cc1)c1c(C)cc(C)n1[B-]2(F)F`, under “in CO”, the photoluminescence quantum yield was determined as 0.81.

In the case of `N#Cc1ccc(C#Cc2ccc3ccc4ccc(C#Cc5ccc(C#N)cc5)c5ccc2c3c45)cc1`, the photoluminescence quantum yield runs as follows: (in CCCCCC) 0.8; (in CO) 0.734; (in ClCCl) 0.732.

Take `CC(C)(C)c1ccc2c(c1)sc1[n+]2[B-](F)(F)n2c(c3cccc4cccc2c43)=C1C#N`: the photoluminescence quantum yield reads like this: (in C1CCOC1) 0.67; (in CC#N) 0.74; (in CCCCCC) 0.68; (in Cc1ccccc1) 0.69; (in ClCCl) 0.7.

Consider `COc1nc(Nc2ccc3c4c(cccc24)C(=O)c2ccccc2-3)nc(OC)n1`, for which the photoluminescence quantum yield (in CC#N) worked out at 0.59; the photoluminescence quantum yield (in CC(C)=O) came to 0.66; the photoluminescence quantum yield (in CC(C)O) was 0.38; the photoluminescence quantum yield (in CCCCOCCCC) was found to be 0.22; the photoluminescence quantum yield (in CCOC(C)=O) turned out to be 0.58; the photoluminescence quantum yield (in CCOCC) worked out at 0.39. Moreover, the photoluminescence quantum yield was 0.3 (in CO); 0.56 (in Cc1ccccc1); 0.66 (in Clc1ccccc1); 0.64 (in N#Cc1ccccc1); 0.67 (in O=C1CCCCC1).

For the compound `Cc1nn(-c2ccccc2)c(C2=NN(c3ccc(Br)cc3)[C@@H](c3ccccc3)[C@@H]2c2ccccc2)c1C#N`, the photoluminescence quantum yield was found to be 0.56 (in C1CCCCC1); 0.65 (in C1CCOC1); 0.6 (in C1COCCO1); 0.41 (in CC#N); 0.43 (in CCCCCCC); 0.49 (in CCO). The photoluminescence quantum yield is, setting by setting: (in CN(C)C=O) 0.6; (in CO) 0.34; (in O) 0.18; (in OCCO) 0.45.

Compound `CCCCCCCCCC1(CCCCCCCCC)c2cc(C#Cc3ccc(C#Cc4ccc(N(CCCCCC)CCCCCC)cc4)cc3)ccc2-c2ccc(C#Cc3ccc(C#Cc4ccc(N(CCCCCC)CCCCCC)cc4)cc3)cc21` registered a photoluminescence quantum yield (in Cc1ccccc1) of 0.82.

`COC(=O)C1=C(C(=O)OC)C2(c3ccccc3-c3ccccc32)[C@@H](c2ccccc2)C=C2c3cc(OC)c(OC)cc3CCN21` came in with a photoluminescence quantum yield (in ClCCl) of 0.00354.

For the setting “in CC#N”, `COc1ccc(-n2nc(C#N)c(N3CCCC3)n2)cc1OC` showed a photoluminescence quantum yield of 0.996.

As to `CC(C)(C)NC(=O)c1ccc(-c2cc3ccccc3s2)c2ccc3c4ccccc4c4ccccc4c3c12`, the photoluminescence quantum yield (in ClCCl) is 0.27.

`O=C(O)C1=C(C(=O)O)C2=C[C@H]3c4ccccc4[C@]2([Se]1)c1ccccc13` had a photoluminescence quantum yield (in ClCCl) of 0.38.

In turn, `c1cc2ccc1-c1ccc(cc1)-c1ccc(s1)-c1ccc(cc1)-c1ccc(cc1)-c1ccc(s1)-c1ccc(cc1)-c1ccc(cc1)-c1ccc-2s1` yielded a photoluminescence quantum yield (in C1CCOC1) of 0.27.

With `c1ccc(-c2nc(-c3ccc(N4c5ccccc5C(c5ccccc5)(c5ccccc5)c5ccccc54)cc3)cc(-c3ccc(N4c5ccccc5C(c5ccccc5)(c5ccccc5)c5ccccc54)cc3)n2)cc1`, the photoluminescence quantum yield was 0.5 (in Cc1ccccc1) and 0.94 (in O=P(c1ccccc1)(c1ccccc1)c1ccc2oc3ccc(P(=O)(c4ccccc4)c4ccccc4)cc3c2c1).

Under “in ClCCl”, `CC(C)(C)c1cc(-n2c(-c3ccc(C(=C(c4ccccc4)c4ccccc4)c4ccccc4)cc3)cc3c2cc(-c2ccc(C(=C(c4ccccc4)c4ccccc4)c4ccccc4)cc2)n3-c2cc(C(C)(C)C)cc(C(C)(C)C)c2)cc(C(C)(C)C)c1` yielded a photoluminescence quantum yield of 0.0085.

In turn, `COC(=O)[C@@]12N=N[C@@](C(=O)OC)(C3C4CCC(C4)C31)[C@@H]1CC12` (stereo not given in full) registered a photoluminescence quantum yield (in CC#N) of 0.041.

With `Cc1nc2cccc(-c3nc4ccccc4o3)c2c(=O)[nH]1`, under “in CN(C)C=O”, the photoluminescence quantum yield came out at 0.392.

On to `N#CC(C#N)=Cc1ccc(-c2ccc(N(c3ccccc3)c3ccccc3)cc2)o1`, for which the photoluminescence quantum yield (in ClC(Cl)Cl) was 0.19.

The compound `COC(=O)c1cc(=O)n(Cc2ccccc2)c2cc(-c3ccc(N(C)C)cc3)sc12` yielded a photoluminescence quantum yield (in CC#N) of 0.05 and a photoluminescence quantum yield (in ClCCl) of 0.98.

Take `O=C(Cc1ccccc1)OCc1ccc2c3cccc4cccc(c5cccc1c52)c43`: where the note is “in CCO”, the photoluminescence quantum yield turned out to be 0.92.

Consider `Nc1ccc(C#Cc2ccc3ccc4ccc(C#Cc5ccc(NS(=O)(=O)c6ccc([N+](=O)[O-])cc6[N+](=O)[O-])cc5)c5ccc2c3c45)cc1`, for which the photoluminescence quantum yield (in CO) came to 0.016.

Turning to `CCOC(=O)c1ccccc1-c1c2ccc(=[N+](CC)CC)cc-2oc2c1c(=O)oc1cc3c(cc12)CCCN3C`, the photoluminescence quantum yield by setting is: (in CCO) 0.04; (in ClC(Cl)Cl) 0.33.

As to `CCCCCCCCCCn1nnc(-c2ccc(C#Cc3ccc(C#Cc4ccc(-c5nnn(CCCCCCCCCC)n5)cc4)c4nc5c6ccccc6c6ccccc6c5nc34)cc2)n1`, the photoluminescence quantum yield turned out to be 0.05 (in C1CCOC1), 0.07 (in Cc1ccccc1) and 0.04 (in ClCCl).
